Measurements taken from US8906860B2, “Methods and compositions inhibiting tumor cell proliferation” (The Board of Trustees of the University of Illinois, priority 2011, dated 2014).
Read-outs that look alike come from different tables or passages of the source. Square brackets hold non-standard residues; d marks the D form. Peptide text beside a SMILES is read from it.

What was measured:
[1] = tested on: p53 null thymic lymphoma cell lines L1 and L2; assay: In vitro peptide treatment of p53 null thymic lymphoma cells (viability, TUNEL); type: cell-based, mouse; conditions: one day after treatment
p53 null sarcoma cells [2] = assay: In vitro peptide treatment of p53 null sarcoma cells (viability, TUNEL); type: cell-based, mouse; conditions: 24 hours
p53 null sarcoma cells [3] = assay: Lung colonization of intravenously injected p53 null sarcoma cells in SCID mice; type: in vivo, mouse; conditions: 5 mg/kg intraperitoneal every other day, 10 injections
Protocol: (§1) These experiments were performed to determine if modifying the termini conferred any advantages on these peptides when administered to an animal. Both wild type ARF 26-44 (rrrrrrrrrKFVRSRRPRTASCALAFVN) (SEQ ID NO 10) and mutant ARF 37-44 (rrrrrrrrrSCALAFVN) (SEQ ID NO 21) peptides were synthesized by Genemed Synthesis Inc. (San Antonio, Tex.). The N-terminus of each peptide was fused with nine D-Arg(r) residues. Both wild type and mutant peptides were blocked with amidation on C-terminus and acetylation on N-terminus. For sarcoma cells, mice were treated with 5 mg/kg body weight of peptide every other day for 10 times. For lymphoma cells, mice were treated with 2.5 mg/kg body weight of peptide every other day for 10 times.
To test the therapeutic effect of the ARF-peptide on p53 null tumors in vivo, p53 null lymphoma/sarcoma cells were introduced into the circulation of SCID mice through intravenous injection. ICR SCID mice were obtained from Taconic Farms (Germantown, N.Y.). Both p53 null sarcoma and lymphoma cells were stably transduced before injection with lentivirus carrying a gene conferring luciferase expression. Specifically, cells were stably transduced with pFU-L2G luciferase construct obtained from Sanjiv Sam Gambhir (M. D., Ph.D) of Stanford University as optimized by Dr. Huiping Liu (Liu et al., Proc Natl Acad Sci USA, 107: 18115-18120). This construct enabled expression of both the bioluminescence and green fluorescence protein. eGFP positive cells were sorted by Beckman Coulter MoFlo. 3×10^6 cells were suspended in cold PBS and injected through the tail vein of SCID mice. Live animal imaging was performed using an IVIS Spectrum optical imaging machine (Caliper Life Sciences, Alameda, Calif.). […] Mice were randomized into three groups and were treated with PBS, mutant-peptide or the wild type ARF-peptide for 10 injections every other day by intraperitoneal injection. […] The mice were sacrificed and lung sections were analyzed for tumor colonies. […]

[4] = tested on: p53 null thymic lymphoma cells; assay: Kidney colonization of intravenously injected p53 null thymic lymphoma cells in SCID mice; type: in vivo, mouse; conditions: 2.5 mg/kg intraperitoneal every other day, 10 injections
Protocol: as §1
To test the therapeutic effect of the ARF-peptide on p53 null tumors in vivo, p53 null lymphoma/sarcoma cells were introduced into the circulation of SCID mice through intravenous injection. ICR SCID mice were obtained from Taconic Farms (Germantown, N.Y.). Both p53 null sarcoma and lymphoma cells were stably transduced before injection with lentivirus carrying a gene conferring luciferase expression. Specifically, cells were stably transduced with pFU-L2G luciferase construct obtained from Sanjiv Sam Gambhir (M. D., Ph.D) of Stanford University as optimized by Dr. Huiping Liu (Liu et al., Proc Natl Acad Sci USA, 107: 18115-18120). This construct enabled expression of both the bioluminescence and green fluorescence protein. eGFP positive cells were sorted by Beckman Coulter MoFlo. 3×10^6 cells were suspended in cold PBS and injected through the tail vein of SCID mice. Live animal imaging was performed using an IVIS Spectrum optical imaging machine (Caliper Life Sciences, Alameda, Calif.). […] Mice were randomized into three groups and were treated with PBS, mutant-peptide or the wild type ARF-peptide for 10 injections every other day by intraperitoneal injection. […] The mice were sacrificed and lung sections were analyzed for tumor colonies. […] For the p53 null thymic lymphoma cells, metastatic growth in kidney was observed, consistent with murine thymic lymphoma cells having a tendency to colonize kidney, liver and spleen (Aoudjit et al., 1998, Blood, 91: 623-629).

S2 cells = conditions: 24 hours
Protocol: TUNEL assay was used to measure apoptosis in S2 cells treated with WT-blocked, mutant-blocked or WT-unblocked (D-Arg)9-p19^ARF 26-44 peptides. (D-Arg)9-p19^ARF 26-44 peptide treatment of cells was performed in 8-well chamber slides for TUNEL staining. On Day 0, 20,000 cells per well were seeded in the 8-well chamber slides. On Day 1, slides were replenished with fresh media containing one of the following concentrations of either WT-blocked, mutant-blocked or WT-unblocked (D-Arg)9-p19^ARF 26-44 peptides: 10, 15, 25, 30, 40 and 70 μM for 24 hours. On Day 2, TUNEL staining was performed following the manufacture's protocol (ApopTag® Fluorescein In Situ Apoptosis Detection Kit from CHEMICON® International, S7110). The percent of apoptosis of S2 cells (±SD) was measured by counting the number of TUNEL-positive cells (green fluorescence) per 1,000 nuclei as visualized by DAPI (blue fluorescence) counterstaining. The experiment was repeated in a second experiment using the same protocol. Statistical analysis and EC50 calculation were performed using GraphPad Prism software.

SMILES: CC(=O)N[C@H](CCCNC(=N)N)C(=O)N[C@H](CCCNC(=N)N)C(=O)N[C@H](CCCNC(=N)N)C(=O)N[C@H](CCCNC(=N)N)C(=O)N[C@H](CCCNC(=N)N)C(=O)N[C@H](CCCNC(=N)N)C(=O)N[C@H](CCCNC(=N)N)C(=O)N[C@H](CCCNC(=N)N)C(=O)N[C@H](CCCNC(=N)N)C(=O)N[C@@H](CCCCN)C(=O)N[C@@H](Cc1ccccc1)C(=O)N[C@H](C(=O)N[C@@H](CCCNC(=N)N)C(=O)N[C@@H](CO)C(=O)N[C@@H](CCCNC(=N)N)C(=O)N[C@@H](CCCNC(=N)N)C(=O)N1CCC[C@H]1C(=O)N[C@@H](CCCNC(=N)N)C(=O)N[C@H](C(=O)N[C@@H](C)C(=O)N[C@@H](CO)C(=O)N[C@@H](CS)C(=O)N[C@@H](C)C(=O)N[C@@H](CC(C)C)C(=O)N[C@@H](C)C(=O)N[C@@H](Cc1ccccc1)C(=O)N[C@H](C(=O)N[C@@H](CC(N)=O)C(N)=O)C(C)C)[C@@H](C)O)C(C)C [WT Blocked, rrrrrrrrrKFVRSRRPRTASCALAFVN] (Ac-[dR][dR][dR][dR][dR][dR][dR][dR][dR]KFVRSRRPRTASCALAFVN-NH2)
- Apoptosis of cells after peptide treatment [1]: underwent apoptosis
- Number of viable cells versus mutant-peptide or PBS [1]: much less
- Viability and apoptosis (TUNEL) after peptide treatment (p53 null sarcoma cells [2]): A similar effect was observed in p53 null sarcoma cells
- Number of lung tumor colonies larger than 100 μm×100 μm (p53 null sarcoma cells [3]): A reduced number of tumor colonies
- Tumors on the surface of the lungs (p53 null sarcoma cells [3]): fewer tumors were observed on the surface of the lungs
- Luciferase signal from mice (p53 null sarcoma cells [3]; 20 days after inoculation): significantly reduced
- Kidney tumor mass at sacrifice [4]: retained their original size and structure, with only a small white mass beginning to build up on the surface of the kidney
- Luciferase signal from colonized lymphoma cells ([4]; around 20 days after inoculation): emitted very little fluorescence
- % of TUNEL Positive S2 Cells, Mean (S2 cells; Experiment 1, 10 μM/Well): 0.46%
- % of TUNEL Positive S2 Cells, Mean (S2 cells; Experiment 1, 25 μM/Well): 20.27%
- % of TUNEL Positive S2 Cells, Mean (S2 cells; Experiment 1, 30 μM/Well): 57.78%
- % of TUNEL Positive S2 Cells, Mean (S2 cells; Experiment 1, 40 μM/Well): 98.48%
- % of TUNEL Positive S2 Cells, Mean (S2 cells; Experiment 2, 10 μM/Well): 12.91%
- % of TUNEL Positive S2 Cells, Mean (S2 cells; Experiment 2, 15 μM/Well): 13.6%
- % of TUNEL Positive S2 Cells, Mean (S2 cells; Experiment 2, 25 μM/Well): 39.48%
- % of TUNEL Positive S2 Cells, Mean (S2 cells; Experiment 2, 30 μM/Well): 47.52%
- % of TUNEL Positive S2 Cells, Mean (S2 cells; Experiment 2, 40 μM/Well): 70.17%
- Apoptosis induction compared between peptides (TUNEL) (S2 cells; S2 cells, 10-70 μM): induced significantly higher apoptosis compared to WT-unblocked and mutant-blocked
